Reference: patent publication US20230024554A1, “METHOD OF CHARACTERIZING THE BINDING CHARACTERISTICS BETWEEN A PEPTIDE OF INTEREST AND MHC MOLECULES” (Immatics Biotechnologies GmbH, priority 2021, published 2023)
Ends that are not written are not given here.

How the values were obtained:
Hs695T cells = assay: Peptide loading of Hs695T cells with PRAME peptide isotopologues; absolute copy numbers by AbsQuant (immunoprecipitation and LC/MS); format: cell-based; conditions: peptide-loaded Hs695T cells; 1 nM is ~0.001 μg/mL
Method: (§1) In order to translate detected relative ion intensities into an absolute measure, isotopologue-specific external calibration curves were acquired in two technical replicates. Therefore, a total of seven different isotopologues (Table 2; reconstituted as described above) were mixed to a final concentration of 20 pmol μL^−1. This stock was subsequently further titrated in 5% formic acid prior to LC/MS analysis. The internal standard PRAME peptide_L3L6 was added at a constant amount of 100 fmol per LC/MS injection. Samples were separated by reversed-phase chromatography (nanoAcquity UPLC, Waters, Milford, Mass.) using ACQUITY UPLC BEH C18 columns (75 μm×250 mm, Waters, Milford, Mass.) and a gradient ranging from 1 to 34.5% ACN over the course of 35 min. […]
(§2) The functional analysis of PRAME-loaded T98G cells was assessed in a co-culture setup. […]
(§3) In brief, 2.5×10^7 T98G (or 2×10^7 Hs695T) cells were incubated in 40 ml DMEM+10% FCS supplemented with the respective concentration of peptide for 2 h at 37° C., 5% C02. […] By adding specific substrate, the amount of LDH present in the supernatant was determined by measuring the colorimetric signal in a microplate reader. […]

T98G cells = assay: Peptide loading of T98G cells with PRAME peptide isotopologues; absolute copy numbers by AbsQuant (immunoprecipitation and LC/MS); format: cell-based; conditions: peptide-loaded T98G cells; 1 nM is ~0.001 μg/mL
Method: as §1, §2, §3

T2 cells = assay: Peptide loading of T2 cells with KLK3 peptide isotopologues; absolute pMHC copy numbers by BB7.2 immunoprecipitation and LC/MS; format: cell-based, human; conditions: T2 cells loaded at 0.1 μg/mL (~81 nM) peptide, 2 h incubation
Method: In order to translate detected relative ion intensities into an absolute measure, isotopologue-specific external calibration curves were acquired in two technical replicates. Therefore, a total of six different isotopologues (Table 1; reconstituted as described above) were mixed to a final concentration of 20 pmol μL^−1. This stock was subsequently further titrated in 5% formic acid prior to LC/MS analysis. The internal standard KLK3 peptide_L2P5 was added at a constant amount of 5 fmol per LC/MS injection. Samples were separated by reversed-phase chromatography (nanoAcquity UPLC, Waters, Milford, Mass.) using ACQUITY UPLC BEH C18 columns (75 μm×250 mm, Waters, Milford, Mass.) and a gradient ranging from 1 to 34.5% ACN over the course of 35 min. Mass spectrometry was performed on an online coupled Orbitrap Fusion Tribrid mass spectrometer (Thermo Fisher Scientific, Waltham, Mass.) in scheduled parallel reaction monitoring (sPRM) mode following collisional-induced dissociation (CID) of selected precursor ions. Subsequent peak boundary integration was performed in Skyline (MacLean et al., 2010).
The T2 cell line was obtained from DSMZ (ACC 598, lot #2). Cells were cultured in RPMI-1640 medium (Gibco, #A1049101) supplemented with 10% heat-inactivated FBS (Gibco, #10270106) in absence of antibiotics, at 37° C. in a humidified atmosphere containing 5% C02. […]

Substance	loading concentration from which copy numbers are detectable (Hs695T cells) [nM]	loading concentration from which copy numbers are detectable (T98G cells) [nM]	absolute peptide abundance (T2 cells)
SLLQHLIGL (not fully specified; listed as Homo sapiens) [PRAME peptide, PRAME-derived MHC-restricted peptide, loaded as isotopologues]	≥ 1	≥ 1	
SL*F*HPEDTGQV* [KLK3 peptide L2F3V 11]			~10,000 copies per cell
